Measurements taken from PMC8848307 (Journal of medicinal chemistry, 2019).

Experiments:
STAT3 protein [1] = molecular target: T1, STAT3 protein (Homo sapiens, UniProt P40763); assay: Western blotting of STAT3 degradation in Molm-16 cells; assay type: cell-based
STAT3 protein [2] = molecular target: T1, STAT3 protein; assay: Western blotting of STAT3 degradation in SU-DHL-1 cells; assay type: cell-based; conditions: SU-DHL-1 cells, ratio of DC50

T1 sequence (P40763 whole entry): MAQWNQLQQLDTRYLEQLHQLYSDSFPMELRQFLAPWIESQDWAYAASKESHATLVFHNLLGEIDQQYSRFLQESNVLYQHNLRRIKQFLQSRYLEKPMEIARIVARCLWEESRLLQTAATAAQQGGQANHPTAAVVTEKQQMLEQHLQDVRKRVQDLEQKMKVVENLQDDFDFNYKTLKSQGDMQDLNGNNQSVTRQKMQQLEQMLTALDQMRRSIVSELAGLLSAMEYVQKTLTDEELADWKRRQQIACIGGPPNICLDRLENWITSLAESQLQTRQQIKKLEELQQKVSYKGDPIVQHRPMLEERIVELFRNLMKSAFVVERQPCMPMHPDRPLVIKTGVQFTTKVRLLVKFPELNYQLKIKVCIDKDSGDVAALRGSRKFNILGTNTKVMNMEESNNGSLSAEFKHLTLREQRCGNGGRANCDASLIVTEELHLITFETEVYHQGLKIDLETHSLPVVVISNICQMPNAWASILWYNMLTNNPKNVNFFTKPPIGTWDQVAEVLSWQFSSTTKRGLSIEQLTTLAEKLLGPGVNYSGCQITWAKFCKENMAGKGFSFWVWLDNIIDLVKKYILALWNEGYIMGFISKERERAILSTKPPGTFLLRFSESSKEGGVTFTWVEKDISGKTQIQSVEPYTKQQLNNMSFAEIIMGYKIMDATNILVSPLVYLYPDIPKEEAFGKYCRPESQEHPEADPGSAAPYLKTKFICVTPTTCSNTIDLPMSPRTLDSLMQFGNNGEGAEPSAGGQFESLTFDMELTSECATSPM

## NC(=O)CC[C@H](NC(=O)[C@@H]1CC[C@@H]2CCN(C(=O)CCCC#Cc3cccc4c3CN(C3CCC(=O)NC3=O)C4=O)C[C@H](NC(=O)c3cc4cc(C(F)(F)P(=O)(O)O)ccc4[nH]3)C(=O)N21)C(=O)NC(c1ccccc1)c1ccccc1 (stereo partly drawn) [Compound 12, ((2-(((5S,8S,10aR)-8-(((S)-5-Amino-1-(benzhydrylamino)-1,5-dioxopentan-2-yl)carbamoyl)-3-(6-(2-(2,6-dioxopiperidin-3-yl)-1-oxoisoindolin-4-yl)hex-5-ynoyl)-6-oxodecahydropyrrolo-[1,2-a][1,5]diazocin-5-yl)carbamoyl)-1H-indol-5-yl)-difluoromethyl)phosphonic Acid]
STAT3 protein [1]; Molm-16, 4 h, concentrations up to 1 μM
  effect on the level of total STAT3 protein: no effect
STAT3 protein [1]; Molm-16, 4 h, up to / at 1 μM
  effect on the level of pSTAT3^Y705 protein: only minimally

## NC(=O)CC[C@H](NC(=O)[C@@H]1CC[C@@H]2CCN(C(=O)CCCCC#Cc3cccc4c3CN(C3CCC(=O)NC3=O)C4=O)C[C@H](NC(=O)c3cc4cc(C(F)(F)P(=O)(O)O)ccc4[nH]3)C(=O)N21)C(=O)NC(c1ccccc1)c1ccccc1 (stereo partly drawn) [Compound 13, ((2-(((5S,8S,10aR)-8-(((S)-5-Amino-1-(benzhydrylamino)-1,5-dioxopentan-2-yl)carbamoyl)-3-(7-(2-(2,6-dioxopiperidin-3-yl)-1-oxoisoindolin-4-yl)hept-6-ynoyl)-6-oxodecahydropyrrolo[1,2-a][1,5]diazocin-5-yl)carbamoyl)-1H-indol-5-yl)difluoromethyl)phosphonic Acid]
STAT3 protein [1]; Molm-16 cells, ratio of DC50
  times more potent than 12 in STAT3 degradation: 10 times

## NC(=O)CC[C@H](NC(=O)[C@@H]1CC[C@@H]2CCN(C(=O)CCCCCCCCC#Cc3cccc4c3CN(C3CCC(=O)NC3=O)C4=O)C[C@H](NC(=O)c3cc4cc(C(F)(F)P(=O)(O)O)ccc4[nH]3)C(=O)N21)C(=O)NC(c1ccccc1)c1ccccc1 (stereo partly drawn) [Compound 16, ((2-(((5S,8S,10aR)-8-(((S)-5-Amino-1-(benzhydrylamino)-1,5-dioxopentan-2-yl)carbamoyl)-3-(11-(2-(2,6-dioxopiperidin-3-yl)-1-oxoisoindolin-4-yl)undec-10-ynoyl)-6-oxodecahydropyrrolo[1,2-a][1,5]diazocin-5-yl)carbamoyl)-1H-indol-5-yl)difluoromethyl)phosphonic Acid]
STAT3 protein [1]; Molm-16 cells, ratio of DC50
  times less potent than SD-36 in STAT3 degradation: 2–3 times

## NC(=O)CC[C@H](NC(=O)[C@@H]1CC[C@@H]2CCN(C(=O)OCCCCC#Cc3cccc4c3CN(C3CCC(=O)NC3=O)C4=O)C[C@H](NC(=O)c3cc4cc(C(F)(F)P(=O)(O)O)ccc4[nH]3)C(=O)N21)C(=O)NC(c1ccccc1)c1ccccc1 (stereo partly drawn) [Compound 18, ((2-(((5S,8S,10aR)-8-(((S)-5-Amino-1-(benzhydrylamino)-1,5-dioxopentan-2-yl)carbamoyl)-3-(((6-(2-(2,6-dioxopiperidin-3-yl)-1-oxoisoindolin-4-yl)hex-5-yn-1-yl)oxy)carbonyl)-6-oxodecahydropyrrolo[1,2-a][1,5]diazocin-5-yl)carbamoyl)-1H-indol-5-yl)difluoromethyl)phosphonic Acid]
STAT3 protein [2]
  times less potent than SD-36 in STAT3 degradation: 2 times

## NC(=O)CC[C@H](NC(=O)[C@@H]1CC[C@@H]2CCN(C(=O)c3cnn(CCCC#Cc4cccc5c4CN(C4CCC(=O)NC4=O)C5=O)c3)C[C@H](NC(=O)c3cc4cc(C(F)(F)P(=O)(O)O)ccc4[nH]3)C(=O)N21)C(=O)NC(c1ccccc1)c1ccccc1 (stereo partly drawn) [Compound 20, ((2-(((5S,8S,10aR)-8-(((S)-5-Amino-1-(benzhydrylamino)-1,5-dioxopentan-2-yl)carbamoyl)-3-(1-(5-(2-(2,6-dioxopiperidin-3-yl)-1-oxoisoindolin-4-yl)pent-4-yn-1-yl)-1H-pyrazole-4-carbonyl)-6-oxodecahydropyrrolo[1,2-a][1,5]diazocin-5-yl)-carbamoyl)-1H-indol-5-yl)difluoromethyl)phosphonic Acid]
STAT3 protein [1]; Molm-16 cells, ratio of DC50
  times less potent than SD-36 in STAT3 degradation: 3–4 times

## NC(=O)CC[C@H](NC(=O)[C@@H]1CC[C@@H]2CCN(C(=O)CCCn3cc(C#Cc4cccc5c4CN(C4CCC(=O)NC4=O)C5=O)cn3)C[C@H](NC(=O)c3cc4cc(C(F)(F)P(=O)(O)O)ccc4[nH]3)C(=O)N21)C(=O)NC(c1ccccc1)c1ccccc1 (stereo partly drawn) [Compound 21, ((2-(((5S,8S,10aR)-8-(((S)-5-Amino-1-(benzhydrylamino)-1,5-dioxopentan-2-yl)carbamoyl)-3-(4-(4-((2-(2,6-dioxopiperidin-3-yl)-1-oxoisoindolin-4-yl)ethynyl)-1H-pyrazol-1-yl)butanoyl)-6-oxodecahydropyrrolo[1,2-a][1,5]diazocin-5-yl)carbamoyl)-1H-indol-5-yl)difluoromethyl)phosphonic Acid]
STAT3 protein [1]; Molm-16 cells, ratio of DC50
  times less potent than SD-36 in STAT3 degradation: 3–4 times

## NC(=O)CC[C@H](NC(=O)[C@@H]1CC[C@@H]2CCN(C(=O)N3CCC(CCC#Cc4cccc5c4CN(C4CCC(=O)NC4=O)C5=O)CC3)C[C@H](NC(=O)c3cc4cc(C(F)(F)P(=O)(O)O)ccc4[nH]3)C(=O)N21)C(=O)NC(c1ccccc1)c1ccccc1 (stereo partly drawn) [Compound 22, ((2-(((5S,8S,10aR)-8-(((S)-5-Amino-1-(benzhydrylamino)-1,5-dioxopentan-2-yl)carbamoyl)-3-(4-(4-(2-(2,6-dioxopiperidin-3-yl)-1-oxoisoindolin-4-yl)but-3-yn-1-yl)piperidine-1-carbon-yl)-6-oxodecahydropyrrolo[1,2-a][1,5]diazocin-5-yl)-carbamoyl)-1H-indol-5-yl)difluoromethyl)phosphonic Acid]
STAT3 protein [1]; Molm-16 cells, ratio of DC50
  times less potent than SD-36 in STAT3 degradation: 3 times

## NC(=O)CC[C@H](NC(=O)[C@@H]1CC[C@@H]2CCN(C(=O)CCN3CCC(C#Cc4cccc5c4CN(C4CCC(=O)NC4=O)C5=O)CC3)C[C@H](NC(=O)c3cc4cc(C(F)(F)P(=O)(O)O)ccc4[nH]3)C(=O)N21)C(=O)NC(c1ccccc1)c1ccccc1 (stereo partly drawn) [Compound 23, ((2-(((5S,8S,10aR)-8-(((S)-5-Amino-1-(benzhydrylamino)-1,5-dioxopentan-2-yl)carbamoyl)-3-(3-(4-((2-(2,6-dioxopiperidin-3-yl)-1-oxoisoindolin-4-yl)ethynyl)piperidin-1-yl)propanoyl)-6-oxodecahydropyrrolo[1,2-a][1,5]diazocin-5-yl)carbamoyl)-1H-indol-5-yl)difluoromethyl)phosphonic Acid]
STAT3 protein [1]; Molm-16 cells, ratio of DC50
  times less potent than SD-36 in STAT3 degradation: 40 times

## NC(=O)CC[C@H](NC(=O)[C@@H]1CC[C@@H]2CCN(C(=O)CC(=O)N3CCC(C#Cc4cccc5c4CN(C4CCC(=O)NC4=O)C5=O)CC3)C[C@H](NC(=O)c3cc4cc(C(F)(F)P(=O)(O)O)ccc4[nH]3)C(=O)N21)C(=O)NC(c1ccccc1)c1ccccc1 (stereo partly drawn) [Compound 24, ((2-(((5S,8S,10aR)-8-(((S)-5-Amino-1-(benzhydrylamino)-1,5-dioxopentan-2-yl)carbamoyl)-3-(3-(4-((2-(2,6-dioxopiperidin-3-yl)-1-oxoisoindolin-4-yl)ethynyl)piperidin-1-yl)-3-oxopropanoyl)-6-oxodecahydropyrrolo[1,2-a][1,5]diazocin-5-yl)-carbamoyl)-1H-indol-5-yl)difluoromethyl)phosphonic Acid]
STAT3 protein [1]; Molm-16 cells, ratio of DC50
  times less potent than SD-36 in STAT3 degradation: 6 times

## NC(=O)CC[C@H](NC(=O)[C@@H]1CC[C@@H]2CCN(C(=O)CCCCCCCc3cccc4c3CN(C3CCC(=O)NC3=O)C4=O)C[C@H](NC(=O)c3cc4cc(C(F)(F)P(=O)(O)O)ccc4[nH]3)C(=O)N21)C(=O)NC(c1ccccc1)c1ccccc1 (stereo partly drawn) [Compound 25, ((2-(((5S,8S,10aR)-8-(((S)-5-Amino-1-(benzhydrylamino)-1,5-dioxopentan-2-yl)carbamoyl)-3-(8-(2-(2,6-dioxopiperidin-3-yl)-1-oxoisoindolin-4-yl)octanoyl)-6-oxodecahydropyrrolo-[1,2-a][1,5]diazocin-5-yl)-carbamoyl)-1H-indol-5-yl)-difluoromethyl)phosphonic Acid]
STAT3 protein [1]; Molm-16 cells, ratio of DC50
  times less potent than SD-36 in STAT3 degradation: 2–3 times

## NC(=O)CC[C@H](NC(=O)[C@@H]1CC[C@@H]2CCN(C(=O)CCCCCCNc3cccc4c3CN(C3CCC(=O)NC3=O)C4=O)C[C@H](NC(=O)c3cc4cc(C(F)(F)P(=O)(O)O)ccc4[nH]3)C(=O)N21)C(=O)NC(c1ccccc1)c1ccccc1 (stereo partly drawn) [Compound 26, ((2-(((5S,8S,10aR)-8-(((S)-5-Amino-1-(benzhydrylamino)-1,5-dioxopentan-2-yl)carbamoyl)-3-(7-((2-(2,6-dioxopiperidin-3-yl)-1-oxoisoindolin-4-yl)amino)heptanoyl)-6-oxodecahydropyrrolo[1,2-a][1,5]diazocin-5-yl)carbamoyl)-1H-indol-5-yl)difluoromethyl)phosphonic Acid]
STAT3 protein [1]; Molm-16 cells, ratio of DC50
  times less potent than SD-36 in STAT3 degradation: 2–3 times

## NC(=O)CC[C@H](NC(=O)[C@@H]1CC[C@@H]2CCN(C(=O)CCCCCC#Cc3ccc4c(c3)CN(C3CCC(=O)NC3=O)C4=O)C[C@H](NC(=O)c3cc4cc(C(F)(F)P(=O)(O)O)ccc4[nH]3)C(=O)N21)C(=O)NC(c1ccccc1)c1ccccc1 (stereo partly drawn) [Compound 28, ((2-(((5S,8S,10aR)-8-(((S)-5-Amino-1-(benzhydrylamino)-1,5-dioxopentan-2-yl)carbamoyl)-3-(8-(2-(2,6-dioxopiperidin-3-yl)-1-oxoisoindolin-5-yl)oct-7-ynoyl)-6-oxodecahydropyrrolo-[1,2-a][1,5]diazocin-5-yl)carbamoyl)-1H-indol-5-yl)difluoromethyl)phosphonic Acid]
STAT3 protein [1]; Molm-16 cells, ratio of DC50
  times less potent than SD-36 in STAT3 degradation: 5–10 times

## NC(=O)CC[C@H](NC(=O)[C@@H]1CC[C@@H]2CCN(C(=O)CCCCCC#Cc3ccc4c(c3)C(=O)N(C3CCC(=O)NC3=O)C4)C[C@H](NC(=O)c3cc4cc(C(F)(F)P(=O)(O)O)ccc4[nH]3)C(=O)N21)C(=O)NC(c1ccccc1)c1ccccc1 (stereo partly drawn) [Compound 29, ((2-(((5S,8S,10aR)-8-(((S)-5-Amino-1-(benzhydrylamino)-1,5-dioxopentan-2-yl)carbamoyl)-3-(8-(2-(2,6-dioxopiperidin-3-yl)-3-oxoisoindolin-5-yl)oct-7-ynoyl)-6-oxodecahydropyrrolo-[1,2-a][1,5]diazocin-5-yl)carbamoyl)-1H-indo 1–5-yl)difluoromethyl)phosphonic Acid]
STAT3 protein [1]; Molm-16 cells, ratio of DC50
  times less potent than SD-36 in STAT3 degradation: 5–10 times
